For one series, the system named is A. baumannii 4-MRGN. Format: cell-based. As to conditions: 4-MRGN, 12 h. How it is done:
(§1) The tested bacteria were incubated overnight in 1×TSB broth, centrifuged and washed with 10 mM sodium phosphate buffer containing 1% (w/v) TSB broth. 5×10^5 cfu/ml bacteria were mixed with different peptide concentrations in 10 mM sodium phosphate buffer with 1% (w/v) TSB (final volume 100 μl) and incubated for 2 hours at 37° C. Afterwards we added 100 μl 2×TSB broth and we measured the optical density at 600 nm (Spark 10M, Tecan, Austria). Bacterial growth was monitored for 12 hours, growing at 37° C. with shaking during the measurements each 30 minutes, except for Akkermansia muciniphila which were incubated at 37° C. in an anaerobic jar and growth was measured after 72 hours.

The next series deals with A. baumannii DSM 30007. Format: cell-based. As to conditions: DSM 30007, 12 h. How it is done: as §1
Series [1] concerns E. coli BW 25113. Format: cell-based. As to conditions: BW 25113, 12 h. How it is done: as §1
The test system of a further series is E. faecium DSM 20477. Format: cell-based. As to conditions: DSM 20477, 12 h. On the procedure:
as §1

A further series relates to P. aeruginosa 4-MRGN. Type of series: cell-based. As to conditions: 4-MRGN, 12 h. How it is done: as §1
Another series has as its system P. aeruginosa ATCC 27853. Format: cell-based. As to conditions: ATCC 27853, 12 h. How it is done:
as §1

The subject of a further series is P. aeruginosa PAO1. Type of series: cell-based. As to conditions: PAO1, 12 h. On the procedure: as §1
The subject of the next series is P. aeruginosa XPAT1. Type of series: cell-based. As to conditions: XPAT1, 12 h. How it is done: as §1
For a further series, the system named is P. aeruginosa XPAT2. Type of series: cell-based. As to conditions: XPAT2, 12 h. How it is done:
as §1

The subject of a further series is S. aureus ATCC 25923. Type of series: cell-based. As to conditions: ATCC 25923, 12 h. How it is done:
as §1

In another series the test system is S. aureus USA300. Type of series: cell-based. As to conditions: USA300, 12 h. How it is done:
as §1

For another series, the system named is Y. enterocolitica. Format: cell-based. As to conditions: 12 h. On the procedure: as §1
Series [2] relates to human cell line, red blood cells.
Procedure: As positive control, cells were treated with 2% Triton X-100 while treatment with 0.01% acetic acid was used as negative control. […] Hemolytic activity was normalized to the hemolytic activity of 0.1% Triton X-100. The experiments were carried out in duplicates.
The activity was normalized to the positive control. As positive control, cells were treated with 2% Triton X-100 while treatment with 0.01% acetic acid was used as negative control.
The subject of series [3] is E. coli BW 25113. The series is described as follows: Turbidity assay, MIC by optical density after 18 h. Format: cell-based. Further details: key: XX High activity; X Low activity; No activity. How it is done: Bactericidal activity of the E. coli and S. aureus strains in the cell wall target experiments as well as the HD5 dimer experiments was assessed as described previously. Log-phase bacteria were collected by centrifugation (2500 rpm, 10 min, […]), washed twice with 10 mM sodium phosphate buffer containing 1% (w/v) TSB broth and the optical density at OD600 nm (OD600=0.1) was determined. Approximately 5×10^5 CFU/ml bacteria were incubated with serial peptide concentrations (1.17-150 μM) in a final volume of 100 μl in 10 mM sodium phosphate buffer containing 1% (w/v) TSB broth for 2 hours at 37° C. After incubation, 100 μl of 6% TSB (w/v) were added and absorbance was measured at 600 nm (Tecan, Switzerland) and monitored for 18 hours. Afterwards, 100 μl per well were plated on LB-plates to determine the numbers of viable bacteria microbiologically. Bactericidal activity is expressed as the LC99.9, the lowest concentration that killed ≥99.9% of bacteria. The experiment was repeated at least three times independently.

The test system of series [4] is S. enterica serovar Enteritidis. The series is described as follows: Turbidity assay, MIC by optical density after 18 h. Format: cell-based. Details: key: XX High activity; X Low activity; No activity.
The subject of a further series is E. faecalis ATCC 19433. The series is described as follows: Turbidity assay, MIC by optical density after 18 h. Format: cell-based.

Converted amounts (≈) assume the structure as drawn. Where a SMILES comes first, the peptide text is derived from it.

As to `C[C@H](N)C(=O)N[C@H](C(=O)N[C@@H](CS)C(=O)N[C@@H](Cc1ccc(O)cc1)C(=O)N[C@@H](CS)C(=O)N[C@@H](CCCNC(=N)N)C(=O)N[C@H](C(=O)NCC(=O)N[C@@H](CCCNC(=N)N)C(=O)O)[C@@H](C)O)[C@@H](C)O` [HD-51-9] (H-ATCYCRTGR-OH; N-terminus and C-terminus assumed), the minimal inhibitory concentration (MIC) with A. baumannii 4-MRGN was determined as 25 µM (≈ 25.8 µg/mL); in the series with A. baumannii DSM 30007, 100 µM (≈ 103 µg/mL); against E. coli BW 25113 [1] it was 25 µM (≈ 25.8 µg/mL); against E. faecium DSM 20477 it was 25 µM (≈ 25.8 µg/mL); against P. aeruginosa 4-MRGN, 100 µM (≈ 103 µg/mL); against P. aeruginosa ATCC 27853, 50 µM (≈ 51.5 µg/mL). In addition, the minimal inhibitory concentration (MIC) in the series with P. aeruginosa PAO1 was 50 µM (≈ 51.5 µg/mL); against P. aeruginosa XPAT1, above 100 µM; against P. aeruginosa XPAT2, above 100 µM; in the series with S. aureus ATCC 25923, 50 µM (≈ 51.5 µg/mL); against S. aureus USA300, 50 µM (≈ 51.5 µg/mL); against Y. enterocolitica, 50 to 100 µM. The “toxic effect in in vitro experiments” value in series [2] is recorded as “no toxicity was observed”.
For RGTRCYCTA [HD-51-9rev], the “antimicrobial activity (MIC), activity class” value is recorded as “XX” in the series with E. coli BW 25113 [3] and “X” in [4]. Also, the “antimicrobial activity, in words” value in the series on E. faecalis ATCC 19433 was “complete dissolving of bactericidal effects”.

The values are drawn from patent publication US12358949B2, “Defensin fragments for use in therapy or prophylaxis” (priority 2019, dated 2025).
